Where a SMILES comes first, the peptide text is derived from it. Where no end group is shown, it is not given here. [ ]: non-standard residue; d: D form. The star is where a group is joined. Hexanoyl = CCCCCC(=O)*; Aib = CC(C)(N)C(=O)O
Legend:
[1] = molecular target: T1, rat VPAC1 receptor (Rattus norvegicus, UniProt P30083); assay: Adenylate cyclase activation on membrane preparations expressing rat VPAC1 receptor; type: biochemical; set-up: expressed in transfected cells; host or cells: CHO cells, crude membranes; conditions: for VPAC1 cAMP max: maximal increase in cyclic AMP production (over basal) per minute and per mg protein
T1 sequence (P30083 31-459): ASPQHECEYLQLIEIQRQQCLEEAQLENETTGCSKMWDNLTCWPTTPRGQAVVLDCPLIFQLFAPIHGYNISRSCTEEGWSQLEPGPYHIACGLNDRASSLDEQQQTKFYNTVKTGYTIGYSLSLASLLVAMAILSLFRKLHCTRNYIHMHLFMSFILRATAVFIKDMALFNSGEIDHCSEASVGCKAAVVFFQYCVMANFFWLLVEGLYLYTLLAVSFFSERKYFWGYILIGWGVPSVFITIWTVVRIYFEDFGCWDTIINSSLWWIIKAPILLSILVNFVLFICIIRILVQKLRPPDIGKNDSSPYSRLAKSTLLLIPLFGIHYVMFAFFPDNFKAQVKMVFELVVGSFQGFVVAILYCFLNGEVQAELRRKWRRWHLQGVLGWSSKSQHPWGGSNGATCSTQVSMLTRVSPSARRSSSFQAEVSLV
Protocol: All studies are performed on crude membranes prepared from three different cell cultures expressing the different recombinant receptors, using methodology that is known in the literature. Duplicate values are obtained for each assay.
The selectivity of the VPAC2 receptor peptide agonists of the present invention are tested on the rat VPAC1 and VPAC2 receptors recombinantly expressed in CHO cells. The compound of the invention were evaluated in receptor binding & adenylate cyclase activation assays.
Dose-effect curves of adenylate cyclase activation were generated using the VPAC2 receptor peptide agonists (10^−11 to 10^−6 M, two concentrations per log) of the present invention.
Adenylate cyclase activity was determined by the procedure of Salomon et al. (1974), A highly sensitive adenylate cyclase assay. Analytical Biochemistry 58 (1974. Membrane proteins ([…]) are incubated in a total volume of […] containing 0.5 mM [^32P]-ATP, 10 µM GTP, 5 mM MgCl2, 0.5 mM EGTA, 1 mM cAMP, 1 mM theophylline, 10 mM phospho(enol)pyruvate, […] pyruvate kinase and 30 mM Tris-HCl at a final pH of 7.8. The reaction is initiated by membrane addition and is terminated after 15 min incubation at 37° C. by addition of 0.5 ml of 0.5% sodium dodecyl-sulfate solution containing 0.5 mM ATP, 0.5 mM cAMP and […] [^3H]-cAMP. cAMP was separated from ATP by two successive chromatographies on Dowex 50Wx8 and neutral alumina.

[2] = molecular target: T2, human VPAC2 (Homo sapiens, UniProt P41587); assay: DiscoveRx cAMP in vitro potency, CHO-S cell line stably expressing human VPAC2 receptor; type: cell-based; conditions: cAMP generation; mean of two independent runs
T2 construct: expressed in transfected cells
T2 sequence (P41587 24-438): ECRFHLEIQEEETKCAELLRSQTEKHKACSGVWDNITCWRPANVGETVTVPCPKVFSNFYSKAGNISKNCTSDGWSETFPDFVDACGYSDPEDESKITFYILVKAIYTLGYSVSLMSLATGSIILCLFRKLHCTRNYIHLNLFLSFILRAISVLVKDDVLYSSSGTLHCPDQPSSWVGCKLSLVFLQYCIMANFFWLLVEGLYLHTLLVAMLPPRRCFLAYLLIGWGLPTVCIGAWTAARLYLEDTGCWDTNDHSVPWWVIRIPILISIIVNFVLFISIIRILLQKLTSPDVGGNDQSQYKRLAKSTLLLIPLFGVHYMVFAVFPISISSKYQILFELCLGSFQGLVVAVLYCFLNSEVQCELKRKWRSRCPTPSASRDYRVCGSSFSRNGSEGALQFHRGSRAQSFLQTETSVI
Protocol: Also, the cells are washed twice. The cells are incubated in assay buffer plus IBMX for 15 minutes at room temperature. […] The stimuli are present for 30 minutes. Then, the assay buffer is gently removed. […] At day 3, the assay described above for the VPAC2 receptor cell line is performed.

[3] = molecular target: T1, rat VPAC1 receptor; assay: DiscoveRx in vitro potency, CHO-PO cells transiently transfected with rat VPAC 1 receptor DNA; type: cell-based; set-up: expressed in transfected cells; host or cells: CHO-PO, transient
Protocol: Also, the cells are washed twice. […] The stimuli are present for 30 minutes. Then, the assay buffer is gently removed.

[4] = tested on: Normal Wistar rats; assay: Delayed IVGTT; type: in vivo, rat; conditions: 10 μg/kg iv, glucose 30 minutes later
Protocol: Delayed IVGTT: Perform IVGTT as described above, making the following changes. After the initial blood sample, compound or vehicle is injected i.v. Glucose is injected i.v. 30 minutes later in a separate injection. Blood samples are taken immediately prior to administration of the compound, at 15 minutes after administration of the compound, and at 30 minutes after administration of the compound. The sample at 30 minutes after administration of the compound is taken immediately prior to glucose administration. Blood samples are drawn 2, 4, 6, 10, and 30 minutes after giving glucose (i.e. 32, 34, 36, 40 and 60 minutes after compound administration). The blood samples at 15 and 60 minutes are not essential to the study and not always taken. Aprotinin is added to the blood sample (250 kIU/ml blood). The serum is then analyzed for glucose and insulin using standard methodologies.
The assay uses a formulated and calibrated peptide stock in PBS. Normally, this stock is a prediluted 100 μM stock. However, a more concentrated stock with approximately 1 mg agonist per mL is used. The specific concentration is always known.

[5] = tested on: conscious Wistar rats; assay: Oral glucose tolerance test (OGTT); type: in vivo, rat; conditions: for Effects on glucose, AUC(0-135 min) / Effects on insulin, AUC(0-75 min): OGTT (15 min)
Protocol: Oral Glucose Tolerance Test (OGTT):
The effect of a selective VPAC2 receptor peptide agonist (P31) on plasma insulin and glucose is evaluated during OGTT in conscious Wistar rats. The maximal dose of agonist is 10 μg/kg. Since the peptide is given intravenously and has a very short half-life, a delay between glucose and compound administrations is applied.

[6] = adenylate cyclase activation, rat VPAC1 membranes, with standard error, read-out: VPAC1 EC50 (log M) (converted)

Compound | EC50 [1, 6] | VPAC1 cAMP max [1] | EC50 [2] | EC50 [3] | other results
CCCCCC(=O)N[C@@H](Cc1c[nH]cn1)C(=O)N[C@@H](CO)C(=O)N[C@@H](CC(=O)O)C(=O)N[C@@H](C)C(=O)N[C@H](C(=O)N[C@@H](Cc1ccccc1)C(=O)N[C@H](C(=O)N[C@@H](CC(=O)O)C(=O)N[C@@H](CC(N)=O)C(=O)N[C@@H](Cc1ccc(O)cc1)C(=O)N[C@H](C(=O)N[C@@H](CCCNC(=N)N)C(=O)N[C@@H](CC(C)C)C(=O)N[C@@H](CCCNC(=N)N)C(=O)NC(C)(C)C(=O)N[C@@H](CCC(N)=O)C(=O)N[C@@H](CC(C)C)C(=O)N[C@@H](C)C(=O)N[C@@H](C)C(=O)NC(C)(C)C(=O)N[C@@H](CCCCN)C(=O)N[C@@H](Cc1ccc(O)cc1)C(=O)N[C@@H](CC(C)C)C(=O)N[C@@H](CCC(N)=O)C(=O)N[C@@H](CO)C(=O)N[C@H](C(=O)N[C@@H](CCCCN)C(=O)N[C@@H](CC(N)=O)C(=O)N[C@@H](CCCCN)C(=O)NCC(=O)NCC(=O)N1CCC[C@H]1C(=O)N[C@@H](CO)C(=O)N[C@@H](CO)C(=O)NCC(=O)N[C@@H](C)C(=O)N1CCC[C@H]1C(=O)N1CCC[C@H]1C(=O)N1CCC[C@H]1C(=O)N[C@@H](CO)C(=O)O)[C@@H](C)CC)[C@@H](C)O)[C@@H](C)O)C(C)C [Agonist P292] (Hexanoyl-HSDAVFTDNYTRLR[Aib]QLAA[Aib]KYLQSIKNKGGPSSGAPPPS-OH; C-terminus assumed) | 11.5 nM | 124 | – | – | –
H-MHSDAVFTDNYTRLRKQVAAKKYLQSIKNKRYGGPSSGAPPPS [Agonist P104] | – | 195 ± 18 | – | – | EC50 [1]: 186 nM
Hexanoyl-HSDAVFTDNYTRLLAKLALQKYLQSIKNKRYGGPSSGAPPPS [Agonist P119] | 2.9 nM | 207 ± 13 | 0.34 nM | 0.07 nM | –
Hexanoyl-HSDAVFTDNYTRLRKQVAAKKYLQSIKNKRYGGPSSGAPPPS [Agonist P31] | 25.2 nM | 200 ± 13 | 0.11 nM | 0.44 nM | Effects on glucose [4]: None; Effects on insulin, AUC(0-10 min) [4]: +91% AUC(0-10 min); Effects on glucose, AUC(0-135 min) ([5]; #1, 10 μg/kg iv): −22% AUC(0-135 min); Effects on insulin, AUC(0-75 min) ([5]; #1, 10 μg/kg iv): +71% AUC(0-75 min); Effects on glucose, AUC(0-135 min) ([5]; #2, 0.5 μg/kg iv): −5% AUC(0-135 min); Effects on insulin, AUC(0-75 min) ([5]; #2, 0.5 μg/kg iv): +16% AUC(0-75 min); Effects on glucose, AUC(0-135 min) ([5]; #2, 10 μg/kg iv): −2% AUC(0-135 min); Effects on insulin, AUC(0-75 min) ([5]; #2, 10 μg/kg iv): +17% AUC(0-75 min); Effects on insulin, AUC(0-90 min) ([5]; OGTT (30 min), 10 μg/kg iv): +85% AUC(0-90 min); Effects on glucose, AUC(0-150 min) ([5]; OGTT (30 min), 10 μg/kg iv, (NS)): −1% AUC(0-150 min)
Hexanoyl-HSDAVFTDNYTRLR[Aib]QVAA[Aib]KYLQSIKNKRYGGPSSGAPPPS [Agonist P261] | 12.6 nM | 126 | – | – | –
